The values that follow come from patent publication US20100292232A1, “NON-NUCLEOSIDE REVERSE TRANSCRIPTASE INHIBITORS” (priority 2007, published 2010).

Data set [1] is described as follows: cytotoxicity, CellTiter-Glo (ATP content) 24 hours after treatment. The note with it: human, mock-infected 293T cells.
The test system of data set [2] is HIV-1 vector with RT mutation K103N. Briefly: microbe, parasite or virus in culture. The class given is cell-based. The note with it: Human immunodeficiency virus 1.
Data set [3] deals with T1, HIV-1 reverse transcriptase (Human immunodeficiency virus type 1 group M subtype B, UniProt P04585).
T1 construct: HIV-1 RT includes a p66/p51 heterodimer; purchased Ambion, Austin, Tex
Briefly: in vitro purified HIV-1 reverse transcriptase assay. Type of data set: biochemical. The procedure:
Anti-HIV-1 reverse transcriptase activity of the disclosed inhibitor compounds was assayed in vitro using an assay adapted from King et al. (Antimicrob. Agents Chemother. 46(6): 1640-46; 2002) and Telesnitsky et al. (Methods Enzymol. 262:347-62; 1995). HIV-1 RT (0.5 units; Ambion, Austin, Tex.) was incubated with various concentrations of compounds for 5 minutes at room temperature. Then a template-primer mixture was added to reach final concentration of 5 μg/mL oligo(dT)20, 10 μg/mL poly(rA), 1.25 μM [α-32P]dTTP and 10 μM dTTP. The mixture was incubated at 37° C. for 60 minutes. Aliquots of the reaction were spotted on DEAE paper, washed twice with 2×SSC buffer (300 mM NaCl, 30 mM sodium citrate) and once with 95% ethanol, dried and exposed to PhosphorImager screen (Molecular Dynamics, Sunnyvale, Calif.). The screens were scanned by FLA-5100 instrument (Fujifilm Life Science, Stamford, Conn.) and the amount of incorporated labeled phosphate was used to quantify the RT activity. The best fitted curves and IC50 values were calculated using Prism 4 software (GraphPad Software, San Diego). […] For the in vitro studies, a triphosphate form of AZT (EMD Biosciences, San Diego, Calif.) was used.

The test system of data set [4] is cells that express luciferase from established HIV-1 proviral DNA. As to the kind of experiment: effect on provirus gene expression. Type of data set: cell-based. The note with it: data not shown. From the text:
It also was investigated whether 08-006-F2 exerts an additional effect on provirus gene expression.

In data set [5] the test system is HIV-1 vector with RT mutation Y181C. Briefly: microbe, parasite or virus in culture. The class given is cell-based. The note with it: Human immunodeficiency virus 1.
Data set [6] concerns HIV-1 reverse transcription viral DNA products. Briefly: real-time PCR quantitation of viral DNA products. Particulars: for effect on synthesis of early and late viral DNA products: 5 μM, 24 hours post infection, FIG. 18. Type of data set: cell-based. On the procedure: Real-time quantitation of viral DNA was accomplished using PCR as follows. The total cellular DNA was harvested 24 hours post infection with the AccuPrep genomic DNA extraction kit (Bioneer Life Science Corp., Rockville, Md.). The amount of viral DNA products was quantified by real-time PCR on ABI Prism 7900 Sequence Detection System (Applied Biosystems, Foster City, Calif.) with the following primers and probes: early HIV-1 reverse transcripts with primers ert2f, ert2r, probe ERT2 (Munk et al., Proc. Natl. Acad. Sci. 99(21):13843-48; 2002, herein incorporated by reference as to the sequence of the primers), late HIV-1 reverse transcripts with primers MH531, MH532, probe LRT-P, 2-LTR circular DNA with primers MHH535, MH536, probe MH603 (Butler et al., Nat. Med. 7(5):631-4; 2001, herein incorporated by reference as to the sequence of the primers and probes). To control the number of cell equivalent DNA in the samples, a single-copy locus in the porphobilinogen deaminase (PBGD) gene (Buckman et al., J. Virol. 77(2):1469-80; 2003) was amplified with primers PBGD1 (5′-[…]; SEQ ID NO: 1) and PBGD2 (5′-[…]; SEQ ID NO: 2) and probe PBGD-P (5′-VIC-[…]-MGBNFQ; SEQ ID NO: 3).
The quantitative real-time PCR-based approach described above was used to determine whether the presently disclosed compounds, such as 08-006-F2, block HIV infection at a step prior to the synthesis of late viral DNA products. Using different specific primers and probes, the amount of early viral DNA products, late viral DNA products, and 2LTR-containing circular forms of viral DNA, were quantified 24 hours post infection. […] As shown in F1G. 18, the effect of 5 μM compound 08-006-F2 and 5 μM AZT on the synthesis of viral DNA products was measured by quantitative real-time PCR. Quantitation of early and late HIV-1 reverse transcription products is illustrated, as is quantitation of 2-LTR containing circular DNA forms (the circular DNA forms serve as a surrogate marker for nuclear translocation of viral DNA). […]

For data set [7], the system named is HIV-1 vector with RT mutation V106A. As to the kind of experiment: microbe, parasite or virus in culture. The class given is cell-based. The note with it: Human immunodeficiency virus 1.
For data set [8], the system named is VSV-G pseudotyped HIV-1 vector (wild-type, pNL4-3LucR+E-). Briefly: microbe, parasite or virus in culture. The class given is cell-based. Particulars: for EC50 / IC50: Human immunodeficiency virus 1, HEK-293T.
Data set [9] relates to HIV-1 vector with RT mutation Y188L. As to the kind of experiment: microbe, parasite or virus in culture. Particulars: Human immunodeficiency virus 1. Type of data set: cell-based.
Data set [10] relates to wild-type and NNRTI mutant viruses (Y188L, Y181C, V106A, K103N). As to the kind of experiment: cell based infectivity assay, wild type and four mutant vectors together. Particulars: FIGS. 22 and 24. Set-up: species or system HIV-1.
Data set [11] has as its system HIV reverse transcriptase having a mutation at codon 181 and 227. The note with it: strains with RT mutation at codon 181 (cysteine) and 227 (leucine); U.S. Pat. No. 7,037,644; cited from earlier work.
The subject of data set [12] is HIV reverse transcriptase having a mutation at codon 106 and 181 and 227. Particulars: strains with RT mutation at codon 106 (alanine), 181 (cysteine) and 227 (leucine); U.S. Pat. No. 7,037,644; cited from earlier work.
The subject of data set [13] is HIV reverse transcriptase having a mutation at codons 103 alone or in combination with a mutation at codon 188. Particulars: strains with RT mutation at codon 103 (asparagine) alone or with 188 (leucine); U.S. Pat. No. 7,037,644; cited from earlier work.

“Also recorded” adds a separate entry of the source. Where two headings read alike, the source gives them in different places.

On to `Clc1ccccc1-c1nc2ccccn2c1NC1CCCCC1` [08-006-F2], for which, in [1], it took 35000 nM to reach half-maximal cytotoxicity (CC50 at 24 h). Further, the EC50 in data set [2] was 2360 nM; in data set [5], 1070 nM; in data set [7], 764 nM; in data set [8], 185 nM. The IC50 is 2800 nM in data set [3] (FIG. 16 dose-response curve, read-out: IC50 inhibition of purified HIV-1 reverse transcriptase activity); 800 nM in data set [8]; 170 nM in data set [8] (read-out: IC50 inhibition of HIV-1 vector infectivity). Moreover, the “combined effect with AZT on purified HIV-1 reverse transcriptase (isobologram)” value in data set [3] (combination with AZT triphosphate, 50% and 90% fractional inhibitory concentrations, FIGS. 17A, 17B) is listed as “synergistic effect; also recorded: synergistic inhibition”. Also, in [4], the “effect on provirus gene expression” value is “no significant influence”. Further, in data set [6], the “effect on synthesis of early and late viral DNA products” value is “blocked the synthesis of early and late viral DNA”. Moreover, in [6] (dose response, FIG. 19), the “inhibition of HIV-1 late RT product formation” value was “dose-dependent inhibition”. Also, in data set [8], the “combined effect with AZT on HIV-1 infectivity (isobologram)” value is reported as “synergistic effects; also recorded: synergistic inhibition”.
As to `Cc1cn([C@H]2C[C@H](N=[N+]=[N-])[C@@H](CO)O2)c(=O)[nH]c1=O` [AZT, zidovudine], the EC50 in [9] was 9.35 nM; in data set [2], 8.76 nM; in data set [5] it was 6.12 nM; in [7], 9.14 nM; in data set [8] it was 7.7 nM. In addition, in [6], the “effect on synthesis of early and late viral DNA products” value is on record as “block at the reverse transcription step”. Moreover, the “inhibition of wild-type and NNRTI-resistant RT mutant viruses (in words)” value in data set [10] was “efficiently inhibited”.
As to `Cc1ccnc2c1NC(=O)c1cccnc1N2C1CC1` [NVP, nevirapine], the EC50 turned out to be 279000 nM in data set [9]; 977 nM in data set [2]; 2000 nM in [5]; 888 nM in data set [7]; 27.4 nM in data set [8].
Turning to `CC(C)Nc1cccnc1N1CCN(C(=O)c2cc3cc(NS(C)(=O)=O)ccc3[nH]2)CC1` [delavirdine], the “change in drug susceptibility” value is given as “increase” in [11], “moderate decrease” in data set [12] and “substantial decrease” in data set [13].
`O=C1Nc2ccc(Cl)cc2[C@@](C#CC2CC2)(C(F)(F)F)O1` [efavirenz]: the figures for the “change in drug susceptibility” value in data set [11], in data set [12] and in [13] were “increase”, “slight decrease” and “substantial decrease”, respectively.
On to `Cc1ccnc2c1NC(=O)c1cccnc1N2C1CC1` [nevirapine, Nevirapine], for which the figures for the “change in drug susceptibility” value in data set [11], in data set [12] and in data set [13] were “significant decrease”, “substantial decrease” and “substantial decrease”, respectively.
